Legend:
[1] = target: Serine/threonine-protein kinase pim-1 (Homo sapiens) (UniProt P11309); experiment: Inhibition of human recombinant PIM1 at 500 nM in presence of ATP by radiometric assay relative to control
[2] = target: RAF proto-oncogene serine/threonine-protein kinase (Homo sapiens) (UniProt P04049); experiment: Inhibition of human recombinant RAF1 at 500 nM in presence of ATP by radiometric assay relative to control
[3] = target: LIM domain kinase 1 (Homo sapiens) (UniProt P53667); experiment: Inhibition of human recombinant LIMK1 at 500 nM related to control ULK1
Chain of LIM domain kinase 1 (Homo sapiens) (P53667 whole entry, looked up, the tested form may be a part): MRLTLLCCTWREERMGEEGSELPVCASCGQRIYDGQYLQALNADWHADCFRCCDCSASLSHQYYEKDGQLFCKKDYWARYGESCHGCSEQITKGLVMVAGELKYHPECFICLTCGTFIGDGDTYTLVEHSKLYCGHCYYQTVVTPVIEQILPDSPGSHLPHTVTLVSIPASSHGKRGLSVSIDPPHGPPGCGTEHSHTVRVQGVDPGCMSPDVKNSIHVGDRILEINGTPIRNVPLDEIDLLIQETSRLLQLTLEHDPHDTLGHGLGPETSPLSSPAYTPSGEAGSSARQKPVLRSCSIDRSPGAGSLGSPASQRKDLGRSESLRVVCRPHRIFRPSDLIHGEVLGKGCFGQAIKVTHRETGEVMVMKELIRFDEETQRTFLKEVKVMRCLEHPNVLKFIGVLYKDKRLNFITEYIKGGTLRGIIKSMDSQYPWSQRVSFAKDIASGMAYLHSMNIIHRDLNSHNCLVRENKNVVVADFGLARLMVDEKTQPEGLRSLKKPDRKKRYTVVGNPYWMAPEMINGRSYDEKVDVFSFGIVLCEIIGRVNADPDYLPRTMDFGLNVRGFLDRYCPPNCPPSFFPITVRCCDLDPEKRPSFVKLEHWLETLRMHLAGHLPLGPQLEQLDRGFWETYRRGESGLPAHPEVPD

[4] = target: Serine/threonine-protein kinase 24 (Homo sapiens) (UniProt Q9Y6E0); experiment: Inhibition of human recombinant MST3 at 15 nM in presence of ATP by radiometric assay relative to control
Chain of Serine/threonine-protein kinase 24 (Homo sapiens) (Q9Y6E0 whole entry, looked up): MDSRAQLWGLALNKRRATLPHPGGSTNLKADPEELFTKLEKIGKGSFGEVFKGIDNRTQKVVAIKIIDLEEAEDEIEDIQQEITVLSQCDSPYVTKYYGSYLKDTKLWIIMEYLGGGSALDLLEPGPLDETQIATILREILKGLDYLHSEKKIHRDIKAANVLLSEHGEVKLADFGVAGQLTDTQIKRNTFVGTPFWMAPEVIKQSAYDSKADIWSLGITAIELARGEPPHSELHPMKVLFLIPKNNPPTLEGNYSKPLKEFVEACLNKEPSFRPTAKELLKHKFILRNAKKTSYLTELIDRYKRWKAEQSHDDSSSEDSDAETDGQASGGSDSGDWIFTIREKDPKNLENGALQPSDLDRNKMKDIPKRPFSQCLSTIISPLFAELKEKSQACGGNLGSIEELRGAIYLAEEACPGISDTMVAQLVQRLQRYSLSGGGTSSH

[5] = target: Serine/threonine-protein kinase 26 (Homo sapiens) (UniProt Q9P289); experiment: Inhibition of human recombinant MST4 at 15 nM in presence of ATP by radiometric assay relative to control
Chain of Serine/threonine-protein kinase 26 (Homo sapiens) (Q9P289 2-416 limits assumed): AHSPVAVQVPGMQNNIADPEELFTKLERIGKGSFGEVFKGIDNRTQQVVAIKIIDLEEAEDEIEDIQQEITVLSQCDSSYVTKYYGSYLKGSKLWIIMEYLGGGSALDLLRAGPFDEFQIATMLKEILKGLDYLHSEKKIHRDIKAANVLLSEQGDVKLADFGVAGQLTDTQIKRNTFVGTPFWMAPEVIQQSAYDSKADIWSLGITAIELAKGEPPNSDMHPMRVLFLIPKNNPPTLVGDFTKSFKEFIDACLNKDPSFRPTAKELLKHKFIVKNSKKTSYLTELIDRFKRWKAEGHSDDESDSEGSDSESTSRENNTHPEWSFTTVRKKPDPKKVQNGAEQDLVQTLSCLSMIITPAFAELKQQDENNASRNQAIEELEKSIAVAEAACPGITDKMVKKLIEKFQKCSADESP

[6] = target: Casein kinase I isoform gamma-3 (Homo sapiens) (UniProt Q9Y6M4); experiment: Inhibition of human recombinant CK1g3 at 15 nM related to control ULK1
Chain of Casein kinase I isoform gamma-3 (Homo sapiens) (Q9Y6M4 whole entry, looked up, canonical isoform): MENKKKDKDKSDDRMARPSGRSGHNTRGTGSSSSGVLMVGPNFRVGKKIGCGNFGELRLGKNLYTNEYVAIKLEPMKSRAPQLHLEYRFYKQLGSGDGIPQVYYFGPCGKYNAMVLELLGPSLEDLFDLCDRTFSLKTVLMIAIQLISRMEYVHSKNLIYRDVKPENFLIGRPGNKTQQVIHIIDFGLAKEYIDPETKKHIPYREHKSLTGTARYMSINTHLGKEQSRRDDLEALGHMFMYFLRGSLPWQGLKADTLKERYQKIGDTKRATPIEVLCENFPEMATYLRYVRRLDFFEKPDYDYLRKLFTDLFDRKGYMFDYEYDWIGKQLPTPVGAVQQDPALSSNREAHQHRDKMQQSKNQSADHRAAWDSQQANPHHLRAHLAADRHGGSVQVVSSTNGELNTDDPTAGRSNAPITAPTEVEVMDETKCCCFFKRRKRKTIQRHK

[7] = target: Ephrin type-A receptor 4 (Homo sapiens) (UniProt P54764); experiment: Inhibition of human recombinant EphA4 at 15 nM related to control ULK1
Chain of Ephrin type-A receptor 4 (Homo sapiens) (P54764 whole entry): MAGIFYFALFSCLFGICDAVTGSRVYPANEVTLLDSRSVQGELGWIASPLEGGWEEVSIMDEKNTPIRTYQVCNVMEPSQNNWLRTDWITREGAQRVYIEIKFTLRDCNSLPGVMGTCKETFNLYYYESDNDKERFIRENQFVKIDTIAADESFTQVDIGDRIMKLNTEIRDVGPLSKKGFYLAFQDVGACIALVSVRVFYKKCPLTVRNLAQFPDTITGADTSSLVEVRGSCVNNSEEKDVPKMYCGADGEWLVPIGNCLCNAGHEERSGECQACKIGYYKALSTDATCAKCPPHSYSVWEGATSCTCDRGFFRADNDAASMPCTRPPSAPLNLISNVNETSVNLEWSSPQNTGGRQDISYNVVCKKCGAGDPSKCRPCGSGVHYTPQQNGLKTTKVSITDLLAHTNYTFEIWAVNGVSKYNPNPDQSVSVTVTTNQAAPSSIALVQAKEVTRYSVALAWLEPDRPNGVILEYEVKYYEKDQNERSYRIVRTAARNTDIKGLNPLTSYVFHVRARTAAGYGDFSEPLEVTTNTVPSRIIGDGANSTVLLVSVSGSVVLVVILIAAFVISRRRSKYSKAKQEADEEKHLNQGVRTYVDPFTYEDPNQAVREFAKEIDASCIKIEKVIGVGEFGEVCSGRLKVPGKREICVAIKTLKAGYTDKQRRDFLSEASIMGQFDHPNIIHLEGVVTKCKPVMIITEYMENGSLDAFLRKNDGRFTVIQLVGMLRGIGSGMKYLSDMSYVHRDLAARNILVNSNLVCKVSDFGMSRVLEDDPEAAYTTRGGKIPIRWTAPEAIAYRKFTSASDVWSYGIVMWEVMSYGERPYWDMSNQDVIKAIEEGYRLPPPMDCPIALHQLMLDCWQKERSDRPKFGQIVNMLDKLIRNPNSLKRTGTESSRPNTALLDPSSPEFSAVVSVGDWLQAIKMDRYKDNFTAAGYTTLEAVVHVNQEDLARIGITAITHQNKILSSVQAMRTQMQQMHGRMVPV

[8] = target: T1, Serine/threonine-protein kinase ICK (Homo sapiens) (UniProt Q9UPZ9); experiment: Inhibition of human recombinant ICK at 15 nM related to control ULK1
T1 sequence (whole entry): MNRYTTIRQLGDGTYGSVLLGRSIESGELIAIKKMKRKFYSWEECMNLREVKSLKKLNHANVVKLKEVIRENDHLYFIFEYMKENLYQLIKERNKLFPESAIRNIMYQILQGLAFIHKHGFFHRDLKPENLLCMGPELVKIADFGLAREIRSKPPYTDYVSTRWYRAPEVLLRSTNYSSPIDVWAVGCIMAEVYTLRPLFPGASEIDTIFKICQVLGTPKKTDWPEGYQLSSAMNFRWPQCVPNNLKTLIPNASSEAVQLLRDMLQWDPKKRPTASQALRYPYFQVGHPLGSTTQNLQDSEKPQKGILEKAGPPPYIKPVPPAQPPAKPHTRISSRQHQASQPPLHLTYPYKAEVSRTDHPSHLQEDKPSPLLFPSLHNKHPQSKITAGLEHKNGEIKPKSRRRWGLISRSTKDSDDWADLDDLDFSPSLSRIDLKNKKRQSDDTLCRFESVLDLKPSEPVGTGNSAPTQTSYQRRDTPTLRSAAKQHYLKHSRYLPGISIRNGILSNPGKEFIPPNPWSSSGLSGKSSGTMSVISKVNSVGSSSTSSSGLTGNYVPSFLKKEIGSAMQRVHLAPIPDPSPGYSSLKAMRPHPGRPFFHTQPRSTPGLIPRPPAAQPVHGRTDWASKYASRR

[9] = target: T2, Ephrin type-A receptor 8 (Homo sapiens) (UniProt P29322); experiment: Inhibition of human recombinant EphA8 at 40 nM in presence of ATP by radiometric assay relative to control
T2 sequence (whole entry): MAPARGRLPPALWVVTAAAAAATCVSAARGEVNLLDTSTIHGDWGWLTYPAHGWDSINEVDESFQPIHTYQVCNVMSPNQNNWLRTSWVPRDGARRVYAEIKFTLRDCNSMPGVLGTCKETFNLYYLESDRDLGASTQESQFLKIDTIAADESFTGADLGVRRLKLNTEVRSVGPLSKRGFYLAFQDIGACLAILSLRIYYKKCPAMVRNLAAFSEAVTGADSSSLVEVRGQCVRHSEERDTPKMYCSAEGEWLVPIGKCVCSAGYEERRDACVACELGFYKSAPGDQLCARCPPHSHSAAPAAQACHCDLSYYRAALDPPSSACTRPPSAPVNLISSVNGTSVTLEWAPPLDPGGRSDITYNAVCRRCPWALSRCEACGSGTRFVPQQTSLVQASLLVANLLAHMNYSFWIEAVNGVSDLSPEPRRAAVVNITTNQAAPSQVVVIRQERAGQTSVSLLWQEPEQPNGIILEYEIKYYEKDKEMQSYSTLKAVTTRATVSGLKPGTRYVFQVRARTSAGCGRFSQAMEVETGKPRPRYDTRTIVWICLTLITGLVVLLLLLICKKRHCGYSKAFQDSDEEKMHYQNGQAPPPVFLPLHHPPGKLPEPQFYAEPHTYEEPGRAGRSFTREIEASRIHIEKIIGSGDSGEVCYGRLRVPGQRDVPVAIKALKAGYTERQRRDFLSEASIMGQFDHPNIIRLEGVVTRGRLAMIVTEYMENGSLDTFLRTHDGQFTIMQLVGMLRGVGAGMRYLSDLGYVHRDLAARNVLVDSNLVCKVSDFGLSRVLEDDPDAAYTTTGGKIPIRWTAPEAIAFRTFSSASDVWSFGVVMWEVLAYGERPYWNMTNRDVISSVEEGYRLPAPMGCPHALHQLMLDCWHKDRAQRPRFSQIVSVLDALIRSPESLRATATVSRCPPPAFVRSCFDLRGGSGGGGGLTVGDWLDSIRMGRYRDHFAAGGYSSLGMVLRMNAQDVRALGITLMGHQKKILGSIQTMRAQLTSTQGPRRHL

[10] = target: T3, Homeodomain-interacting protein kinase 4 (Homo sapiens) (UniProt Q8NE63); experiment: Inhibition of human recombinant HIPK4 at 40 nM related to control ULK1
T3 sequence (whole entry): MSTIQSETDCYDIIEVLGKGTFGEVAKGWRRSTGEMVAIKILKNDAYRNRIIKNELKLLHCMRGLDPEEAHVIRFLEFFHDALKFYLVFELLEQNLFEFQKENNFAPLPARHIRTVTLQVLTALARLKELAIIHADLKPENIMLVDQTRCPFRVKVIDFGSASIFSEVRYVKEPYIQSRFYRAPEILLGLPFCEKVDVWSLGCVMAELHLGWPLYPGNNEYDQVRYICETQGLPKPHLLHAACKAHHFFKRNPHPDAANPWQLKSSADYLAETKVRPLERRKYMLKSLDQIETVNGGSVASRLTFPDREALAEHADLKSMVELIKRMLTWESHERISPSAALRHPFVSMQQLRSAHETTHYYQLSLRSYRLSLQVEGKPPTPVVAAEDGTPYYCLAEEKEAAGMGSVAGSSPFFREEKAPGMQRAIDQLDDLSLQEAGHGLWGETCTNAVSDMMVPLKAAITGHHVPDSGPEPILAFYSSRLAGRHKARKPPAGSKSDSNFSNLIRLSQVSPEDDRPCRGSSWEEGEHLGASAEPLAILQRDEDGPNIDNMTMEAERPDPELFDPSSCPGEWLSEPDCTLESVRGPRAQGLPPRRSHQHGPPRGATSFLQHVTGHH

Chain of RAF proto-oncogene serine/threonine-protein kinase (Homo sapiens) (P04049 whole entry, the tested form may be a part): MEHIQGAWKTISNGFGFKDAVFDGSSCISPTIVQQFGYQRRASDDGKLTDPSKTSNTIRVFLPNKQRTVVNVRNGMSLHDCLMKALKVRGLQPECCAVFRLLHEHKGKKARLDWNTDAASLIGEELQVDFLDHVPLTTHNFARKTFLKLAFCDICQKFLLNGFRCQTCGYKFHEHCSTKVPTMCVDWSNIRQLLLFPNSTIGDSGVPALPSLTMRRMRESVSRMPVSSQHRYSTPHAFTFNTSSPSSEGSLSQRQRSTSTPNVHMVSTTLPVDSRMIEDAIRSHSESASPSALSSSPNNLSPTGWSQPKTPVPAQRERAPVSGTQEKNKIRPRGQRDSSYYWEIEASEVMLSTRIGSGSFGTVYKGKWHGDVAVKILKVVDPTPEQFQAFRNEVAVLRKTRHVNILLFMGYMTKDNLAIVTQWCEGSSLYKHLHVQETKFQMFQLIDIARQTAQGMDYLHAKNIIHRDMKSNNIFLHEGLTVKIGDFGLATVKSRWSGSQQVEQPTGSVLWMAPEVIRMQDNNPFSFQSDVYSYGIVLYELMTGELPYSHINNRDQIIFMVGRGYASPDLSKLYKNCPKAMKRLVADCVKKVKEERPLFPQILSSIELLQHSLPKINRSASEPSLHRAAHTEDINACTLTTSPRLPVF
Chain of Serine/threonine-protein kinase pim-1 (Homo sapiens) (P11309 whole entry, looked up): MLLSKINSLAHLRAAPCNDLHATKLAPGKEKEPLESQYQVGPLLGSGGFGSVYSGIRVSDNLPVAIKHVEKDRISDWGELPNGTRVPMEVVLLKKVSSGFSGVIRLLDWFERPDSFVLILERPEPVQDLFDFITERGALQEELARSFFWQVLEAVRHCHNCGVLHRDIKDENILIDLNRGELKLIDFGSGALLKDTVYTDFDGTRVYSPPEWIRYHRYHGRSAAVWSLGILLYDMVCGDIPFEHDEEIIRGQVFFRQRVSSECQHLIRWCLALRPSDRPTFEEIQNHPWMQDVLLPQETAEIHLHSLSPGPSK

How did the inhibition [1] turn out when CNC(=O)c1ccccc1Oc1nc(Nc2cc(OC)c(OC)c(OC)c2)ncc1Br was run?
Its inhibition is 2%.

What about the inhibition [2] of the same compound?
Its inhibition is 11%.

What about the fold change (FC) [3] of the same compound?
Its fold change (FC) is 0.03.

What does the source list for CC(C)[C@H](NC(=O)c1cc(-c2cnn3cc(-c4ccc(OCCN5CCCCC5)cc4)cnc23)cs1)C(F)(F)F?
inhibition [4]: 0%; inhibition [5]: 0%; fold change (FC) [6]: 0.03; fold change (FC) [7]: 0; fold change (FC) [8]: 0

For O=C(N[C@@H](C1CC1)C(F)(F)F)c1cc(-c2cnn3cc(-c4ccc(F)cc4)cnc23)cs1, which inhibition [9] is on record?
The inhibition was 0%.

What about the fold change (FC) [10] of the same compound?
The fold change (FC) was 0.
